Source: patent US9695155B2, “Herbicidal substituted pyrimidinyloxy benzene compounds” (E. I. DU PONT DE NEMOURS AND COMPANY, priority 2013, dated 2017)

Legend:
[1] = tested on: blackgrass; test: Test A postemergence; type: in vivo, Alopecurus myosuroides; conditions: 0 to 100 scale where 0 is no effect and 100 is complete control
Outline: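 Scoring: eye-based comparison with untreated controls, 0 for no effect through 100 for complete control, at about day 10. Treatments: directed soil spray preemergence; foliar spray postemergence on 2–10 cm plants at the one- to two-leaf stage. Medium: loam soil with sand.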

[2] = tested on: barnyardgrass; test: Test B flooded paddy test; type: in vivo, Echinochloa crus-galli; conditions: Echinochloa crus-galli; Flood, 250 g ai/ha; 0 to 100 scale where 0 is no effect and 100 is complete control; read-out: Plant response rating, Barnyardgrass
Outline: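 Flooded to 3 cm at the 2-leaf stage, pots received compound through the paddy water and were kept at that depth under greenhouse conditions. After 13–15 days, effect was rated by eye relative to controls, 0 = none and 100 = complete control.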

[3] = tested on: galium; test: Test C preemergence; type: in vivo, Galium aparine; conditions: Galium, pre-emergence
Outline: (§1)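 Whole-plant greenhouse test with surfactant-containing solvent formulation, applied preemergence to sown loam–sand pots or postemergence to 2–18 cm plants. Scored by eye 13 to 15 days on, 0–100 scale.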

[4] = tested on: corn; test: Test C preemergence; type: in vivo, Zea mays; conditions: Zea mays, pre-emergence
Outline: as §1

[5] = tested on: morningglory; test: Test C preemergence; type: in vivo, Ipomoea coccinea; conditions: Ipomoea, pre-emergence
Outline: as §1

[6] = tested on: yellow nutsedge; test: Test C preemergence; type: in vivo, Cyperus esculentus; conditions: Cyperus, pre-emergence
Outline: as §1

[7] = tested on: wheat, winter; test: Test C postemergence; type: in vivo, Triticum aestivum; conditions: Triticum aestivum, post-emergence
Outline: as §1

[8] = tested on: lambsquarters; test: Test C postemergence; type: in vivo, Chenopodium album; conditions: Chenopodium album, post-emergence
Outline: as §1

[9] = tested on: morningglory; test: Test C postemergence; type: in vivo, Ipomoea coccinea; conditions: Ipomoea, post-emergence
Outline: as §1

[10] = tested on: ragweed; test: Test C postemergence; type: in vivo, Ambrosia elatior; conditions: Ambrosia artemisiifolia, post-emergence
Outline: as §1

[11] = tested on: soybean; test: Test C postemergence; type: in vivo, Glycine max; conditions: Glycine max, post-emergence
Outline: as §1

[12] = tested on: oilseed rape; test: Test C postemergence; type: in vivo, Brassica napus; conditions: Brassica napus, post-emergence
Outline: as §1

For `N#Cc1cccc(Oc2ncc(Cl)cn2)c1-n1cc(SC(F)(F)F)cn1` [Compound 134, 3-[(5-chloro-2-pyrimidinyl)oxy]-2-[4-(trifluoromethylthio)-1-pyrazolyl]benzonitrile], the “Blackgrass plant response rating” value ([1]; 125 g ai/ha) was 30, the “Plant response rating, Blackgrass” value ([1]; 500 g ai/ha) was 90 and the pest or weed control at 250 g/ha [2] was 0%. For the same molecule, the pest or weed control at 16 g/ha ([3]; 16 g ai/ha, preemergence, scale 0 to 100 (0 no effect, 100 complete control), read-out: Galium plant response rating) was 0%, the pest or weed control at 62 g/ha ([3]; 62 g ai/ha, preemergence, scale 0 (no effect) to 100 (complete control), read-out: Galium plant response rating) was 90% and the pest or weed control at 125 g/ha ([3]; 125 g ai/ha, preemergence, scale 0 (no effect) to 100 (complete control), read-out: Galium plant response rating) was 98%. It also gave a pest or weed control at 31 g/ha ([3]; Preemergence, 31 g ai/ha, scale 0 to 100, 0 no effect, 100 complete control, read-out: Plant response rating, Galium) of 0%, a plant injury at 16 g/ha ([4]; 16 g ai/ha, preemergence, scale 0 to 100 (0 no effect, 100 complete control), read-out: Corn plant response rating) of 0% and a plant injury at 62 g/ha ([4]; 62 g ai/ha, preemergence, scale 0 (no effect) to 100 (complete control), read-out: Corn plant response rating) of 40%. The plant injury at 125 g/ha ([4]; 125 g ai/ha, preemergence, scale 0 (no effect) to 100 (complete control), read-out: Corn plant response rating) was 40%, the Corn plant response rating (crop injury, 0 = no effect, 100 = complete kill) at 31 g/ha ([4]; Preemergence, 31 g ai/ha, scale 0 to 100, 0 no effect, 100 complete control) was 30% and the pest or weed control at 16 g/ha ([5]; 16 g ai/ha, preemergence, scale 0 to 100 (0 no effect, 100 complete control), read-out: Morningglory plant response rating) was 5%. It also gave a pest or weed control at 62 g/ha ([5]; 62 g ai/ha, preemergence, scale 0 (no effect) to 100 (complete control), read-out: Morningglory plant response rating) of 35%, a pest or weed control at 125 g/ha ([5]; 125 g ai/ha, preemergence, scale 0 (no effect) to 100 (complete control), read-out: Morningglory plant response rating) of 40% and a pest or weed control at 31 g/ha ([5]; Preemergence, 31 g ai/ha, scale 0 to 100, 0 no effect, 100 complete control, read-out: Plant response rating, Morningglory) of 20%. It also gave a pest or weed control at 16 g/ha ([6]; 16 g ai/ha, preemergence, scale 0 to 100 (0 no effect, 100 complete control), read-out: Nutsedge, Yellow plant response rating) of 0%, a pest or weed control at 62 g/ha ([6]; 62 g ai/ha, preemergence, scale 0 (no effect) to 100 (complete control), read-out: Nutsedge, Yellow plant response rating) of 0% and a pest or weed control at 125 g/ha ([6]; 125 g ai/ha, preemergence, scale 0 (no effect) to 100 (complete control), read-out: Nutsedge, Yellow plant response rating) of 10%. For the same molecule, the pest or weed control at 31 g/ha ([6]; Preemergence, 31 g ai/ha, scale 0 to 100, 0 no effect, 100 complete control, read-out: Plant response rating, Nutsedge, Yellow) was 0%, the plant injury at 16 g/ha ([7]; 16 g ai/ha, postemergence, 0 is no effect, 100 is complete control, read-out: Plant response rating (0 to 100), Wheat) was 0% and the plant injury at 125 g/ha ([7]; 125 g ai/ha, postemergence, visual rating, scale 0 to 100 (0 no effect, 100 complete control), read-out: Plant response rating, Wheat) was 25%. It also gave a plant injury at 62 g/ha ([7]; Postemergence, 62 g ai/ha, scale 0 to 100 (0 no effect, 100 complete control), read-out: Plant response rating, Wheat) of 5%, a pest or weed control at 16 g/ha ([8]; 16 g ai/ha, postemergence, 0 is no effect, 100 is complete control, read-out: Plant response rating (0 to 100), Lambsquarters) of 5% and a pest or weed control at 125 g/ha ([8]; 125 g ai/ha, postemergence, visual rating, scale 0 to 100 (0 no effect, 100 complete control), read-out: Plant response rating, Lambsquarters) of 65%. For the same molecule, the pest or weed control at 62 g/ha ([8]; Postemergence, 62 g ai/ha, scale 0 to 100 (0 no effect, 100 complete control), read-out: Plant response rating, Lambsquarters) was 75%, the pest or weed control at 16 g/ha ([9]; 16 g ai/ha, postemergence, 0 is no effect, 100 is complete control, read-out: Plant response rating (0 to 100), Morningglory) was 70% and the pest or weed control at 125 g/ha ([9]; 125 g ai/ha, postemergence, visual rating, scale 0 to 100 (0 no effect, 100 complete control), read-out: Plant response rating, Morningglory) was 95%. For the same molecule, the pest or weed control at 62 g/ha ([9]; Postemergence, 62 g ai/ha, scale 0 to 100 (0 no effect, 100 complete control), read-out: Plant response rating, Morningglory) was 85%, the pest or weed control at 16 g/ha ([10]; 16 g ai/ha, postemergence, 0 is no effect, 100 is complete control, read-out: Plant response rating (0 to 100), Ragweed) was 10% and the pest or weed control at 125 g/ha ([10]; 125 g ai/ha, postemergence, visual rating, scale 0 to 100 (0 no effect, 100 complete control), read-out: Plant response rating, Ragweed) was 55%. For the same molecule, the pest or weed control at 62 g/ha ([10]; Postemergence, 62 g ai/ha, scale 0 to 100 (0 no effect, 100 complete control), read-out: Plant response rating, Ragweed) was 55%, the Soybean plant response rating (crop injury, 0-100 scale) at 16 g/ha ([11]; 16 g ai/ha, postemergence, 0 is no effect, 100 is complete control) was 60% and the Soybean plant response rating (crop injury, 0-100 scale) at 125 g/ha ([11]; 125 g ai/ha, postemergence, visual rating, scale 0 to 100 (0 no effect, 100 complete control), read-out: Plant response rating, Soybean) was 90%. The Soybean plant response rating (crop injury, 0-100 scale) at 62 g/ha ([11]; Postemergence, 62 g ai/ha, scale 0 to 100 (0 no effect, 100 complete control)) was 65%, the plant injury at 16 g/ha ([12]; 16 g ai/ha, postemergence, 0 is no effect, 100 is complete control, read-out: Plant response rating (0 to 100), Oilseed Rape) was 5% and the plant injury at 125 g/ha ([12]; 125 g ai/ha, postemergence, visual rating, scale 0 to 100 (0 no effect, 100 complete control), read-out: Plant response rating, Oilseed Rape) was 60%. It also gave a plant injury at 62 g/ha ([12]; Postemergence, 62 g ai/ha, scale 0 to 100 (0 no effect, 100 complete control), read-out: Plant response rating, Oilseed Rape) of 70%.
